Data as given in US11000501B2, “Composition for preventing or treating neurological and mental disorders, containing syringaresinol” (SEOUL NATIONAL UNIVERSITY R&DB FOUNDATION, priority 2016, dated 2021).

What was measured:
Format in all cases: cell-based, mouse
[1] = test system: NMDAR-EPSC in CA1 neurons; experiment: NMDAR-mediated EPSC recording in CA1 neurons; conditions: −40 mV; NBQX and picrotoxin present; 100-ms interval
Experimental: (§1) To measure evoked excitatory post-synaptic current (eEPSC), the synapse potential was recorded using a patch pipette (3 to 4Mohm) via the membrane voltage clamp technique. The patch pipette contained a solution containing 100 mM CsMeSO4, 10 mM TEA-Cl, 20 mM CsCl, 8 mM NaCl, 10 mM HEPES, 0.5 mM QX-314-Cl, 4 mM Mg-ATP, 0.3 mM Na-GTP and 10 mM EGTA and having pH 7.25 and 290 mOsm/kg. EPSC was measured at a frequency of 0.05 Hz. The synaptic current was induced using a glass pipette (0.3 to 0.5 Mohm). GABAA receptor (GABAAR) antagonist picrotoxin (50 μM) was added to ACSF.

hippocampal CA1 region = experiment: Picrotoxin-induced epilepsy activity in intact hippocampal slices; conditions: picrotoxin 50 μM
Experimental: Selective inhibition of excitatory synaptic transmission rather than inhibitory synapse transmission means that SYR may change the balance between synapse excitation and inhibition in neurons. We checked whether this synapse regulation might inhibit epilepsy pathogenic activity caused by excessive excitement of the neural network. To model an epilepsy pathogenic neuron network in experimental conditions (in vitro), the hippocampal slice was prepared while the CA3 region was left. During recording, ACSF containing picrotoxin (50 μM) was perfused in intact hippocampal slices. […] Continuous picrotoxin perfusion (>20 min) discharged an epilepsy pathogenic excitation wave. This wave was characterized by a three to seven population spikes (PS) waveform of a decreasing amplitude (FIG. 7C).

[2] = test system: Schaffer collateral (SC)-CA1 synapse of the hippocampus; experiment: fEPSP recording in hippocampal SC-CA1 synapse (hippocampal slices); conditions: for first and second fEPSPs: paired pulse interval 100 ms
Experimental: A hippocampus slice (400 μm thick) was prepared in a cold dissection buffer using a vibrating machine (Vibratome, Leica, Germany) and then a CA3 region of each slice was removed surgically immediately after the slice formation. In this connection, the cold dissection buffer contained sucrose 230 mM; NaHCO3 25 mM; KCl 2.5 mM; NaH2PO4 1.25 mM; D-glucose 10 mM; Na-ascorbic acid salt 1.3 mM; MgCl2 3 mM; CaCl2 0.5 mM, 95% O2/5% CO2 and had pH 7.4. The slice was recovered in a normal ACSF (artificial cerebrospinal fluid) for 1 hour and then maintained at room temperature (23 to 25° C.) until recording. […] All electrophysiological experiments were performed in a recording chamber while the samples were immersed in the solution in a manner described previously (Song et al., 2017). Signals were amplified using a MultiClamp 700B amplifier (Molecular Devices, CA, USA) at a cut-off frequency of 2.8 kHz and were measured with a Digidata 1440A interface (Molecular Devices) at a 10 kHz sampling frequency. Data were collected using pClamp 10.2 (Molecular Devices) software. The collected data were analyzed with a program created in the lab using Igor Pro (WaveMetrics, OR, USA). To record the field excitatory post-synaptic potential (fEPSP) in the hippocampal SC-CA1 synapse, hippocampal slices were placed in the recording chamber and perfused with ACSF while oxygen was fed continuously to the ACSF. The ACSF was maintained at a temperature of 29 to 30° C. using a heater for perfusion (SH-27B, Warner Instruments, CT, USA). A synapse response was induced by stimulation with a glass pipette (0.3 to 0.5 Mohm) every 20 seconds (0.05 Hz). The synapse response was recorded using a glass pipette (3 to 4 Mohm) filled with ACSF. The intensity of the stimulus was adjusted to produce a synapse response of about ⅓ of the maximum value thereof. The slices with unstable (10%) baseline records were excluded. To investigate the effect of syringaresinol (SYR) on the synaptic transmission, the field excitatory post-synaptic potential (fEPSP) of the Schaffer collateral (SC)-CA1 synapse of the hippocampus of adult mice (4 to 6 weeks of age) was measured. After confirming the stable baseline, different concentrations of SYR were applied thereto using the perfusion solution.

[3] = test system: AMPAR-EPSC in CA1 neurons; experiment: AMPAR-mediated EPSC whole-cell patch clamp in CA1 neurons
Experimental: as §1
Thus, it was necessary to check the effect of SYR on desensitization of AMPAR in CA1 neurons. The whole-cell patch clamp technique was used in the presence of NMDAR blocker AP-5 and GABAA receptor blocker picrotoxin (PTX, 50 μM).
To confirm this assumption, we examined the effect of SYR on AMPAR-EPSC by injecting, as the actin-stabilizer, jasplakinolide (2 μM) into the patch pipette solution (FIG. 3H to FIG. 3J).
Furthermore, we checked whether post-synaptic loading of SYR regulates AMPAR-EPSC. We measured AMPAR-EPSC for 25 minutes immediately after cell membrane-punching using a K+-based pipette solution. […] If the post-synaptic loading of SYR affects AMPAR-EPSC, gradual diffusion of SYR from the pipette solution should inhibit AMPAR-EPSC.
Previous studies have shown that the secretion probability is regulated by the size of the readily releasable pool (RRP) of hippocampal neurons. Therefore, RRP was measured before and after treatment with SYR (100 μM). A high-frequency train (20 Hz) composed of more than 60 stimuli was prepared. 80 stimuli at 20 Hz was applied to completely remove RRP from the SC-CA1 synapse. RRP size was measured by cumulative amplitude analysis (Stevens and Williams, 2007; Wesseling and Lo, 2002).

CA1 neurons = experiment: Whole-cell current clamp recording of membrane potential
Description: Next, whole-cell current clamp recordings were used to check the effect of SYR on the membrane potential of CA1 neurons.

COc1cc(C2OCC3C(c4cc(OC)c(O)c(OC)c4)OCC23)cc(OC)c1O (stereo not drawn) [SYR, syringaresinol]
NMDAR-EPSC induced by paired-pulse stimulation [1]: significantly inhibited | amplitude of first epilepsy pathological excitation wave (first PS) (hippocampal CA1 region): decreased | area of the epilepsy pathological fEPSP (population spike) (hippocampal CA1 region): decreased | epilepsy pathological excitation wave (hippocampal CA1 region): significantly inhibited | slope of fEPSP in epilepsy-induced hippocampal slice (hippocampal CA1 region): rapidly reduced | paired-pulse ratio (PPR) of fEPSP ([2]; 30 μM and 100 μM, interval 100 ms): gradually increased | first and second fEPSPs ([2]; 30 μM): significantly decreased | amplitude of fEPSP during SYR perfusion (1 h) ([2]; 100 μM, 1 h): rapidly decreased and then remained stable | PPR before vs one hour after application, small inter-pulse interval ([2]; 100 μM, interval 200 ms): significant difference in PPR | PPR before vs one hour after application, large inter-pulse interval ([2]; 100 μM, interval 500 ms): no difference in PPR | first and second fEPSPs ([2]; 100 μM): significantly decreased | inhibition at 500 µM ([2]; Mus musculus, 500 μM of SYR, read-out: maximum inhibition of fEPSP): 75.9 ± 1.6% | IC50 ([2]; Mus musculus, SC-CA1 synapse, hippocampal slice, bath perfusion, read-out: IC50 for decrease of slope and amplitude of fEPSP): 90 µM | post-synaptic response (fEPSP) ([2]; high concentrations, >10 μM): decreased rapidly | effect on fEPSP ([2]; low concentrations, 1 to 5 μM): did not affect fEPSP | PPR and fEPSP after washing the SYR with control solution ([2]; washout): slowly recovered to baseline | AMPAR-EPSC ([3]; 100 μM, AP-5 and picrotoxin present): inhibited | excitatory post-synaptic current (EPSC) amplitude ([3]; fixed potential of −70 mV, AP-5 and picrotoxin 50 μM present): significantly reduced | time constant of EPSC reduction (decay) ([3]; −70 mV): did not affect | membrane potential of CA1 neurons (CA1 neurons; SYR 100 μM applied extracellularly): Significant hyperpolarization | resting membrane potential (CA1 neurons; SYR 100 μM in the pipette solution): did not affect resting membrane potential
